Data reported in article PMC7651855 (ACS nano, 2019).
Bridges are numbered along the chain shown (N, C = ends). Where no end group is shown, it is not given here.

System: C57bl/6 mice
Format: in vivo, mouse
Details: n=3; for CNS accumulation of NA-HRP (result in words): biotin-peptide:NA-HRP complex, IP, 24 hours post-injection

With “SACHQSQSRMCGGG (disulfide 3-11 (inferred)) [TACL10]” as the sequence, how does the “CNS accumulation of NA-HRP (result in words)” value read?
The value was “trended toward significant CNS accumulation”.

“SACPLSKGKLCGGG (disulfide 3-11 (inferred)) [TACL08]” was tested. Which “NA-delivery to the forebrain (result in words)” value (peptide-neutravidin-HRP, 10 μg per mouse IP, 24 hours) did it give?
Its value is “increased NA-delivery to the forebrain when compared against controls”.

“SACSQKNFTHCGGG (disulfide 3-11 (inferred)) [TACL06]” was tested. Which “CNS accumulation of NA-HRP (result in words)” value did it give?
The value was “trended toward significant CNS accumulation”.
